PubChem BioAssay (NCI)
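How tested: cells in 96-well plates exposed to compound for 48 hours at five concentrations. GI50 is the concentration that inhibits growth by half. Definition used: TGI = concentration required for complete inhibition of growth.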

What was measured:
Assay in all cases: inhibition of tumour cell growth, NCI panel, 48 h
[1] = tested on: SK-MEL-28 melanoma
[2] = tested on: HCC-2998 colon
[3] = tested on: OVCAR-5 ovarian
[4] = tested on: EKVX NSCLC
[5] = tested on: UACC-257 melanoma
[6] = tested on: SR leukemia
[7] = tested on: ACHN renal
[8] = tested on: KM12 colon
[9] = tested on: LOX IMVI melanoma
[10] = tested on: K-562 leukemia
[11] = tested on: CCRF-CEM leukemia
[12] = tested on: IGROV1 ovarian
[13] = tested on: RPMI-8226 leukemia
[14] = tested on: UO-31 renal
[15] = tested on: UACC-62 melanoma
[16] = tested on: SN12C renal
[17] = tested on: HCT-15 colon
[18] = tested on: PC-3 prostate
[19] = tested on: OVCAR-4 ovarian
[20] = tested on: NCI/ADR-RES ovarian
[21] = tested on: MDA-MB-231 breast
[22] = tested on: SK-MEL-5 melanoma
[23] = tested on: RXF 393 renal
[24] = tested on: A498 renal
[25] = tested on: TK-10 renal
[26] = tested on: U251 CNS
[27] = tested on: MOLT-4 leukemia

CN(C)C1CCN(Cc2ccc(NC(=O)c3cncc(C#Cc4cnc(N)c5ncccc45)c3)cc2C(F)(F)F)CC1
GI50 [1]: 0.912 µM
TGI [1]: 1.74 µM
GI50 [2]: 9.21 µM
TGI [2]: 20.2 µM
GI50 [3]: 8.21 µM
TGI [3]: 15.6 µM
GI50 [4]: 8.46 µM
TGI [4]: 18.7 µM
GI50 [5]: 1.43 µM
TGI [5]: 3.97 µM
GI50 [6]: 2.05 µM
TGI [6]: 50 µM
GI50 [7]: 0.828 µM
TGI [7]: 1.51 µM
GI50 [8]: 0.236 µM
TGI [8]: 6.88 µM
GI50 [9]: 8.01 µM
TGI [9]: 20 µM
GI50 [10]: 0.0158 µM
TGI [10]: 1.02 µM
GI50 [11]: 1.54 µM
TGI [11]: 6.07 µM
GI50 [12]: 9.48 µM
TGI [12]: 19.9 µM
GI50 [13]: 4.31 µM
TGI [13]: 17 µM
GI50 [14]: 0.999 µM
TGI [14]: 1.78 µM
GI50 [15]: 6.09 µM
TGI [15]: 13.8 µM
GI50 [16]: 8.94 µM
TGI [16]: 18.1 µM
GI50 [17]: 5.08 µM
TGI [17]: 13.7 µM
GI50 [18]: 7.42 µM
TGI [18]: 15.5 µM
GI50 [19]: 1.9 µM
TGI [19]: 9.24 µM
GI50 [20]: 1.23 µM
TGI [20]: 2.7 µM
GI50 [21]: 0.742 µM
TGI [21]: 1.61 µM
GI50 [22]: 5.51 µM
TGI [22]: 12.9 µM
GI50 [23]: 1.9 µM
TGI [23]: 7.67 µM
GI50 [24]: 5.65 µM
TGI [24]: 14.1 µM
GI50 [25]: 9.69 µM
TGI [25]: 19.5 µM
GI50 [26]: 1.03 µM
TGI [26]: 2.22 µM
GI50 [27]: 1.55 µM
TGI [27]: 5.57 µM
